Blank lines part the entries; values can stand above or below the compound they belong to.
Tests used:
[1] = target: Fibroblast growth factor receptor 1 (Homo sapiens, UniProt P11362); assay: Selectivity interaction (KinomeScan (DiscoverX)) EUB0000666a FGFR1; conditions: at 10 µM
[2] = target: Eukaryotic translation initiation factor 2-alpha kinase 1 (Homo sapiens) (UniProt Q9BQI3); assay: Selectivity interaction (KinomeScan (DiscoverX)) EUB0000607a EIF2AK1; conditions: at 10 µM
[3] = target: Cyclin-dependent kinase 14 (Homo sapiens) (UniProt O94921); assay: Selectivity interaction (ActivX KiNativ screen (kinase selectivity in THP-1 cell lysates)) EUB0000639a CDK14; assay type: subcellular; conditions: lysate
Sequence of Cyclin-dependent kinase 14 (Homo sapiens) (O94921 whole entry): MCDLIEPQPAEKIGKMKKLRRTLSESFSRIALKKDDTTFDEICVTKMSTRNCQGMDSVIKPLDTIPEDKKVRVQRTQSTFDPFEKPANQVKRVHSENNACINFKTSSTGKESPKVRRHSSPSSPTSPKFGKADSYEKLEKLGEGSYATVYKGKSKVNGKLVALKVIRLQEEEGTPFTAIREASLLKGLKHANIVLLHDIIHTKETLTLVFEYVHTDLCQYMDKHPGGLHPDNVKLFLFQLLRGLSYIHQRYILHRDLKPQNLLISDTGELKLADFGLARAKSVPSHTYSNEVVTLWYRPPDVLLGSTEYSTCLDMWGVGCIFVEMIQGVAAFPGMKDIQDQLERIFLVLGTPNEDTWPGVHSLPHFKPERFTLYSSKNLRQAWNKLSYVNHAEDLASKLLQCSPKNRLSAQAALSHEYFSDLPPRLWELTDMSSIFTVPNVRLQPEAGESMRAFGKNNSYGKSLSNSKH

[4] = target: Glycogen synthase kinase-3 beta (Homo sapiens, UniProt P49841); assay: Selectivity interaction (ProQinase) EUB0000171b GSK3B
Sequence of Glycogen synthase kinase-3 beta (P49841 whole entry, looked up): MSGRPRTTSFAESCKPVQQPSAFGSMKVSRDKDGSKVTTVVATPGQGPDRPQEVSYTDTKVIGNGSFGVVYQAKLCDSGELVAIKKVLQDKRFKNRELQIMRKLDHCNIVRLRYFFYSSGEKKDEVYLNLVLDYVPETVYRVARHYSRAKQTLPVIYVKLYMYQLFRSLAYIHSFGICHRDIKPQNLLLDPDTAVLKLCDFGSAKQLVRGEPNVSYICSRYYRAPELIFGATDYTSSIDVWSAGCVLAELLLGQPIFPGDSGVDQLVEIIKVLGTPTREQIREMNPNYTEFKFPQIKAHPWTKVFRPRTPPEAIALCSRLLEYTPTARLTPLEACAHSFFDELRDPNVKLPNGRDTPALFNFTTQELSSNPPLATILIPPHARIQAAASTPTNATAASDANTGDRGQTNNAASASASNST

[5] = target: T1, Membrane-associated tyrosine- and threonine-specific cdc2-inhibitory kinase (Homo sapiens) (UniProt Q99640); assay: Selectivity interaction (Kinase panel (DSF assay)) EUB0001559a PKMYT1
T1 sequence (whole entry): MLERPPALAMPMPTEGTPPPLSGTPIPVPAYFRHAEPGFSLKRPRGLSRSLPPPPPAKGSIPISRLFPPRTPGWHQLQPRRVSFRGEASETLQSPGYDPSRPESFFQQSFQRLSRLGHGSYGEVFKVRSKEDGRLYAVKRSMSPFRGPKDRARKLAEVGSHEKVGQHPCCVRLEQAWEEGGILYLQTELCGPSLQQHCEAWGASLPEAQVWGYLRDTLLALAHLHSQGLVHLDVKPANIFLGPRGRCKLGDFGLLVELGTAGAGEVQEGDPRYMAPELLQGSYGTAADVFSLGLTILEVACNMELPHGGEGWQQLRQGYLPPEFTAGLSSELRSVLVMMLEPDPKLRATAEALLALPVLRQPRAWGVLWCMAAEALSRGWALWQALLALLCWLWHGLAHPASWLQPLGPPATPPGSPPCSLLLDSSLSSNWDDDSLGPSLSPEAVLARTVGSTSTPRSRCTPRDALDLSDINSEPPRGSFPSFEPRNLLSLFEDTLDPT

[6] = system: Epidermal growth factor receptor (Homo sapiens), P00533 [G719S]; conditions: at 10 µM
[7] = target: T2, Aurora kinase A (Homo sapiens) (UniProt O14965); assay: Selectivity interaction (Ambit KINOMEscan and KiNATiv profiling in Jurkat cells) EUB0000090b STK6; assay type: cell-based; conditions: at 1 µM
T2 sequence (whole entry): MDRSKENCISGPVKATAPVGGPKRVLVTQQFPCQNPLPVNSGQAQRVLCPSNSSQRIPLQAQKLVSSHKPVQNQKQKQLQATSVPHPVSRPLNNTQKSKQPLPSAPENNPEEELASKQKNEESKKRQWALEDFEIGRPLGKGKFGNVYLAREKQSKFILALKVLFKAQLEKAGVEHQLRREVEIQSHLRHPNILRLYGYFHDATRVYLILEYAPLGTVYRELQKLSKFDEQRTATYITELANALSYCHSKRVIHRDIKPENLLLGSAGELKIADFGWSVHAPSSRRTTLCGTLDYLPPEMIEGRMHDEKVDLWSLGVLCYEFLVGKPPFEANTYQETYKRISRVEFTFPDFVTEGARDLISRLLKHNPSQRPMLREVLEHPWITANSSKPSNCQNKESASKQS

[8] = target: Activin receptor type-2B (Homo sapiens) (UniProt Q13705); assay: Selectivity interaction (KinomeScan (DiscoverX)) EUB0000655a ACVR2B; conditions: at 10 µM
Sequence of Activin receptor type-2B (Homo sapiens) (Q13705 whole entry): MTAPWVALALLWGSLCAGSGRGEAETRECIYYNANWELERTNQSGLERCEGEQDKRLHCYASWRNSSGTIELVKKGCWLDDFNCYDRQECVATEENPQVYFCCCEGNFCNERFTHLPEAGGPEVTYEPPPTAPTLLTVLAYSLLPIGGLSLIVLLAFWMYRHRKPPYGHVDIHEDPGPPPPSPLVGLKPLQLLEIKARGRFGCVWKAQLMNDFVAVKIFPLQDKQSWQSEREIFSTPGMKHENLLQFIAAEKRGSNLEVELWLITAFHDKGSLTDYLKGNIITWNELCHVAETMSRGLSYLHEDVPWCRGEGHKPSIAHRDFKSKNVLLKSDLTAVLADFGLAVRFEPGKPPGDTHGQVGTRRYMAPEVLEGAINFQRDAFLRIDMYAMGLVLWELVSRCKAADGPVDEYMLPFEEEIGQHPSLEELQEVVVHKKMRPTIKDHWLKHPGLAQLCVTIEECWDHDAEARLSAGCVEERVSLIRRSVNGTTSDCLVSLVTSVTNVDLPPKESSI

Activated CDC42 kinase 1 = Activated CDC42 kinase 1 (Homo sapiens, UniProt Q07912); assay: Selectivity interaction (KinomeScan (DiscoverX)) EUB0001079a TNK2; conditions: at 1 µM
[9] = target: Mitogen-activated protein kinase 8 (Homo sapiens, UniProt P45983); assay: Selectivity interaction (Kinase panel (KiNativ target engagement assay in Jurkat cells)) EUB0001635a MAPK8; assay type: cell-based; conditions: at 1 µM
Sequence of Mitogen-activated protein kinase 8 (P45983 whole entry, the tested form may be a part): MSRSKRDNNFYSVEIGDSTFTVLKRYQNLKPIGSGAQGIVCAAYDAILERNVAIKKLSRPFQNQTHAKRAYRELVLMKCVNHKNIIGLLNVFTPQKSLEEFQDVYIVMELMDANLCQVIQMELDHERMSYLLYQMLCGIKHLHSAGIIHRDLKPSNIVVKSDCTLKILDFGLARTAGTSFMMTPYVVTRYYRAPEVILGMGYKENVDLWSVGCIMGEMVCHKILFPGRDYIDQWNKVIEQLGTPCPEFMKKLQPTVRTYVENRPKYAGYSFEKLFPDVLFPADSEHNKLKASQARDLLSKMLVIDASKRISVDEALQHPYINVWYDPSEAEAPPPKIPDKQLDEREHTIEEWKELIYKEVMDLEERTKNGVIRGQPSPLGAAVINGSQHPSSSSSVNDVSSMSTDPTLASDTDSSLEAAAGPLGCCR

[10] = target: LIM domain kinase 1 (Homo sapiens) (UniProt P53667); assay: Selectivity interaction (KinomeScan (DiscoverX)) EUB0000092b LIMK1; conditions: at 10 µM
[11] = target: Mitogen-activated protein kinase kinase kinase 20 (Homo sapiens) (UniProt Q9NYL2); conditions: at 10 µM
Sequence of Mitogen-activated protein kinase kinase kinase 20 (Homo sapiens) (Q9NYL2 2-800 limits assumed): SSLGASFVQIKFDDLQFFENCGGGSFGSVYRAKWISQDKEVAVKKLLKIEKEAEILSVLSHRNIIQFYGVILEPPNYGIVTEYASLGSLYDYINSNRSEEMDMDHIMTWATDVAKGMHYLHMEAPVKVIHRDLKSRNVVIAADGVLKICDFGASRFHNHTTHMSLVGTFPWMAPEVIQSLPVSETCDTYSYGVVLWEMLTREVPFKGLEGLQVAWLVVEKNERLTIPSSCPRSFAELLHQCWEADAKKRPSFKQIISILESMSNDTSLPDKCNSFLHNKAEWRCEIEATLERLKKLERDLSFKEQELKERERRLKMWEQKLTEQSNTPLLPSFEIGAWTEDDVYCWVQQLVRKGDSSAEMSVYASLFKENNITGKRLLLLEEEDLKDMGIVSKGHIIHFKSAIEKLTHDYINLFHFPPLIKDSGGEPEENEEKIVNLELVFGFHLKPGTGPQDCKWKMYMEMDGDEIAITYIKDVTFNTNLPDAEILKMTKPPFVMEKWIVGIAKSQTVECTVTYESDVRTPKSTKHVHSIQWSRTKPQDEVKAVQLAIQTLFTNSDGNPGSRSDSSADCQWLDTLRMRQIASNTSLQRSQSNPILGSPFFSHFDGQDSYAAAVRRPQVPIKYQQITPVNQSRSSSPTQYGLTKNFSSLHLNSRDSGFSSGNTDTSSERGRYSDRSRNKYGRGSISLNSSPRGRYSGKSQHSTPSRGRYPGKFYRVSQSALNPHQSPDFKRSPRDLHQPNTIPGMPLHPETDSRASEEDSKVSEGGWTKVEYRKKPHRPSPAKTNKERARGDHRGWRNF

[12] = target: Tyrosine-protein kinase JAK1 (Homo sapiens, UniProt P23458); assay: Selectivity interaction (ActivX KiNativ screen (ex vivo kinase selectivity in human PBMCs)) EUB0001619a JAK1; assay type: cell-based; conditions: PBMC, at 1 µM
Sequence of Tyrosine-protein kinase JAK1 (P23458 whole entry): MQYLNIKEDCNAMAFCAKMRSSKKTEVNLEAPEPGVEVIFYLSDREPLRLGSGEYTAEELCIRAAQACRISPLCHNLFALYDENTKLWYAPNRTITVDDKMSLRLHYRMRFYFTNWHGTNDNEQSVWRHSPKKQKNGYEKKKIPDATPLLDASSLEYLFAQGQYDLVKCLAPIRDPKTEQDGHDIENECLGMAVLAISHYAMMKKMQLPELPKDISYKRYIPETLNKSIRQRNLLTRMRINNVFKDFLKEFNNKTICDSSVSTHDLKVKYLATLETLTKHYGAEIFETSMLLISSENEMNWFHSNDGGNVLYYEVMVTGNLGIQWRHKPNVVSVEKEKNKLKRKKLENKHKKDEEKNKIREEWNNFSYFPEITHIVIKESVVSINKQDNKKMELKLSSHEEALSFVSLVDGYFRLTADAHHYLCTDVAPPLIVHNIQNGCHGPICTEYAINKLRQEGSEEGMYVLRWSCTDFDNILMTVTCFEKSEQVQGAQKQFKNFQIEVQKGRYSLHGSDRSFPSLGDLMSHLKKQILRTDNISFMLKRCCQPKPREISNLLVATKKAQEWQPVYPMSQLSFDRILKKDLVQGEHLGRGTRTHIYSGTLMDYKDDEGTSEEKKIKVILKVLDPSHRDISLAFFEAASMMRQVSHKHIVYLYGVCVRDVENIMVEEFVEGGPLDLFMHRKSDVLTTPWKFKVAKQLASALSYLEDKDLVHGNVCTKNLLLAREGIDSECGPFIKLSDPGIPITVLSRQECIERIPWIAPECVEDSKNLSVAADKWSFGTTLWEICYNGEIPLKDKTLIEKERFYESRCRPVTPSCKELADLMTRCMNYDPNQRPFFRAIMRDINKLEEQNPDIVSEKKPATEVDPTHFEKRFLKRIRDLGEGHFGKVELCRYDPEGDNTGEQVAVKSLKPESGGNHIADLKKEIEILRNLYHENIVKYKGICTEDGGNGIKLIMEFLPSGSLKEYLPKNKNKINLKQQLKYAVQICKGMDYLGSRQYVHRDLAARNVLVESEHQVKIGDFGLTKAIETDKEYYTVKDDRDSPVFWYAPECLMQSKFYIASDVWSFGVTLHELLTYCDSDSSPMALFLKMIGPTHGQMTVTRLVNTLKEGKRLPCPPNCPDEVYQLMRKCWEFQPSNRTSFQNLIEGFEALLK

[13] = target: T3, Serine/threonine-protein kinase BRSK2 (Homo sapiens) (UniProt Q8IWQ3); assay: Selectivity interaction (KinomeScan (DiscoverX)) EUB0001619a BRSK2; conditions: at 1 µM
T3 sequence (whole entry): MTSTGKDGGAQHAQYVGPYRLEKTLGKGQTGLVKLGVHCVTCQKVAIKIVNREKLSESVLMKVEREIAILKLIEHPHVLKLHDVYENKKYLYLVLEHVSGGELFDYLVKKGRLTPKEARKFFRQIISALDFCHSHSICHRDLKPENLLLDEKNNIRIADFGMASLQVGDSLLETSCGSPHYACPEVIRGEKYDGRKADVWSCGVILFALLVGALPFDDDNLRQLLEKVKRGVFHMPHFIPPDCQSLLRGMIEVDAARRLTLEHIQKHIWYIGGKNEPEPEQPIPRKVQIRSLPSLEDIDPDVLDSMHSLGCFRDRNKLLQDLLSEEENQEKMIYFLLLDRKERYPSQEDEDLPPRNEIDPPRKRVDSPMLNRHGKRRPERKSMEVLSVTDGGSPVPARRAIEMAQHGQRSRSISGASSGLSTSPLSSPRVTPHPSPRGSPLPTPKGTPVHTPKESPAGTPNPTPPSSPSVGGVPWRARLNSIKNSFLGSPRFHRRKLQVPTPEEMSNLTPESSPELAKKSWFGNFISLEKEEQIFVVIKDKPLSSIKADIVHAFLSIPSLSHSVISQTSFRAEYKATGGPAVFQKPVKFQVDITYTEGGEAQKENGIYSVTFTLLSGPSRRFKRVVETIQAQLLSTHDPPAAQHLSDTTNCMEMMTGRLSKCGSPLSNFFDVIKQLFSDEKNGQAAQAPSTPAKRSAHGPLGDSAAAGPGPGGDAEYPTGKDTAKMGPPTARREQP

Sequence of Fibroblast growth factor receptor 1 (P11362 22-822 limits assumed): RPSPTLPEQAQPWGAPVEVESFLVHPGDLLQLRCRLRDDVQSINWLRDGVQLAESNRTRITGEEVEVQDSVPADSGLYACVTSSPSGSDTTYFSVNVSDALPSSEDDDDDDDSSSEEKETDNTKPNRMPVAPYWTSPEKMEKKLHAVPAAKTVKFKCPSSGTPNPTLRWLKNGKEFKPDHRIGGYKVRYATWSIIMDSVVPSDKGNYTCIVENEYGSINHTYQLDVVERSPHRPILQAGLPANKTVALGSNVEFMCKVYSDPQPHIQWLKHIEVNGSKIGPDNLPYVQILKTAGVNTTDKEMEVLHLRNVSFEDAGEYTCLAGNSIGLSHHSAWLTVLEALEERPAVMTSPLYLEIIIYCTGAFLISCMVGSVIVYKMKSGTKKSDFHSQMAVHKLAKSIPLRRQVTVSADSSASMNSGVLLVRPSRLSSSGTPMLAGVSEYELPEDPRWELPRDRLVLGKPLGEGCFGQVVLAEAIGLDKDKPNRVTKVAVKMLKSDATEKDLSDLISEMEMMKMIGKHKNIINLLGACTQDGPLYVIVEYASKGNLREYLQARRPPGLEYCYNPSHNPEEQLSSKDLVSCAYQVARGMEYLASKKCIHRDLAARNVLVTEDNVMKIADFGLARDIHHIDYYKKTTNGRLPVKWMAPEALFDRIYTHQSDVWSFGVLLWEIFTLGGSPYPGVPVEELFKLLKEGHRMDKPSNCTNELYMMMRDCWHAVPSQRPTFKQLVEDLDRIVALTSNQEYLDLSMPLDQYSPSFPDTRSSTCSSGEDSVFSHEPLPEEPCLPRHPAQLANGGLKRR

Structure (SMILES): O=C(NOC[C@H](O)CO)c1ccc(F)c(F)c1Nc1ccc(I)cc1F
% of control [1]: 100%

Structure (SMILES): CNC(=O)Nc1ccc(-c2nc(N3CC4CCC(C3)O4)c3cnn(C4CCC5(CC4)OCCO5)c3n2)cc1
% of control [2]: 100%

% of inhibition ([3]; at 0.01 µM): -6.2%
% of inhibition ([3]; at 0.04 µM): 2.9%
% of inhibition ([3]; at 0.2 µM): -6.5%
% of inhibition ([3]; at 1 µM): 12.2%
% of inhibition ([3]; at 5 µM): 16.4%
Structure (SMILES): CC[C@@H]1[C@H](F)C(=O)N[C@@H]1COc1nccc2cc(C(N)=O)c(OC)cc12 [ZIMLOVISERTIB]

% of control ([4]; at 1 µM): 91%
% of control ([4]; at 5 µM): 85%
Structure (SMILES): C=CC(=O)Nc1cccc(C(=O)Nc2ccc(Nc3cc(-c4[nH]c(SC)nc4C)ccn3)cc2)c1

dTM [5]: 0.4 K
Structure (SMILES): CN(C(=O)c1cnn2cccnc12)c1cc2c(cc1N1CCOCC1)C(=O)N(C[C@@H](F)C(C)(C)O)C2

Structure (SMILES): COCC(=O)NC/C=C/c1ccc2ncnc(Nc3ccc(Oc4ccc(C)nc4)c(C)c3)c2c1 [CP-724714]
% of control [6]: 0%

Structure (SMILES): CN(C)C/C=C/C(=O)Nc1ccc(C(=O)N2CCCC(Nc3ncc(Cl)c(-c4c[nH]c5ccccc45)n3)C2)cc1 (centres undefined)
% of control [7]: 96%

Structure (SMILES): CN(C)CCOc1ccc(-c2nc(-c3ccncc3)c(-c3ccc4c(c3)CC/C4=N\O)[nH]2)cc1
% of control [8]: 98%

Structure (SMILES): Nc1cnc(N2CCc3cc(S(=O)(=O)Nc4c(F)cc(Cl)cc4F)cc(N4CCCC4=O)c32)nc1 [TP-020n]
% of control (Activated CDC42 kinase 1): 91%

Structure (SMILES): C=CC(=O)Nc1ccc(C(=O)Nc2[nH]nc3c2CN(C(=O)N[C@H](CN(C)C)c2ccccc2)C3(C)C)cc1
% of engagement [9]: -7.2%

Structure (SMILES): CCC(=O)N1CCN(c2ccc(-n3c(=O)ccc4cnc5ccc(-c6cnc7ccccc7c6)cc5c43)cc2C(F)(F)F)CC1
% of control [10]: 15%

Structure (SMILES): Cc1cc([C@@H](C)Nc2ccccc2C(=O)O)c2nc(N3CCOCC3)cc(=O)n2c1 [AZD-6482]
% of control [11]: 100%

Structure (SMILES): N#Cc1cccc(-c2c[nH]c3ncnc(N4CCOCC4)c23)c1
% of inhibition [12]: 5%
% of control [13]: 85%

From ChEMBL document CHEMBL5465560, “Selectivity Literature for EUbOPEN Chemogenomic Library” (2024)
